Tested on: HCV replicon I389luc-ubi-neo/NS3-3′/ET in ET (Huh-lucubineo-ET) cells; screening for HCV RNA dependent RNA polymerase
Test: Replicon Assay (luciferase, ET cell line Huh-lucubineo-ET)
Format: cell-based
Details: Hepatitis C virus; inhibition of replication relative to no compound control; test concentration of 10 μM according to the fitted equation; luciferase 48-72 hours
Description: A cell line, ET (Huh-lucubineo-ET) was used for screening of compounds of the present invention for HCV RNA dependent RNA polymerase. The ET cell line was stably transfected with RNA transcripts harboring a I389luc-ubi-neo/NS3-3′/ET; replicon with firefly luciferase-ubiquitin-neomycin phosphotransferase fusion protein and EMCV-IRES driven NS3-5B polyprotein containing the cell culture adaptive mutations (E1202G; T12801; K1846T) (Krieger at al, 2001 and unpublished). The ET cells were grown in DMEM, supplemented with 10% fetal calf serum, 2 mM Glutamine, Penicillin (100 IU/mL)/Streptomycin (100 μg/mL), 1× nonessential amino acids, and 250 μg/mL G418 (“Geneticin”). They were all available through Life Technologies (Bethesda, Md.). The cells were plated at 0.5-1.0×10^4 cells/well in the 96 well plates and incubated for 24 hrs before adding nucleoside analogs. […] Luciferase activity were measured 48-72 hours later by adding a lysis buffer and the substrate (Catalog number Glo-lysis buffer E2661 and Bright-Glo luciferase system E2620 Promega, Madison, Wis.). Cells should not be too confluent during the assay. Percent inhibition of replication was plotted relative to no compound control. Under the same condition, cytotoxicity of the compounds was determined using cell proliferation reagent, WST-1(Roche, Germany). The compounds showing antiviral activities, but no significant cytotoxicities were chosen to determine IC50 and TC50. For these determinations, 10 concentrations of each compound were used. Concentrations for test compounds typically span a range of 500 fold. IC50 and TC50 values were calculated by fitting % inhibition at each concentration (I) to the following equation: % inhibition=100%/[1+10^(log IC50−log (I))*b] where b is Hill's coefficient.

| SMILES | inhibition at 10 µM [%] |
| --- | --- |
| COc1ccc(-c2csc(NC(=O)[C@@H]3CCCN3C(=O)OCc3ccccc3)n2)cc1[N+](=O)[O-] [Compound 5091, 2-[4-(4-Methoxy-3-nitro-phenyl)-thiazol-2-ylcarbamoyl]-pyrrolidine-1-carboxylic acid benzyl ester] | 100 |
| O=C(Nc1nc(-c2c(F)c(F)c(F)c(F)c2-c2ccccc2)cs1)[C@@H]1CCCN1C(=O)OCc1ccccc1 [Compound 5014, 2-[4-(3,4,5,6-Tetrafluoro-biphenyl-2-yl)-thiazol-2-ylcarbamoyl]-pyrrolidine-1-carboxylic acid benzyl ester] | 66.6 |
| CC(C)Cc1ccc(-c2csc(NC(=O)[C@@H]3CCCN3C(=O)OCc3ccccc3)n2)cc1 [Compound 5102, 2-[4-(4-Isobutyl-phenyl)-thiazol-2-ylcarbamoyl]-pyrrolidine-1-carboxylic acid benzyl ester] | 9.8 |
| O=C(NCc1ccc(-c2csc(NC(=O)[C@@H]3CCCN3C(=O)OCc3ccccc3)n2)cc1)C1CC1 [Compound 5369, 2-(4-{4-[(Cyclopropanecarbonyl-amino)-methyl]-phenyl}-thiazol-2-ylcarbamoyl)-pyrrolidine-1-carboxylic acid benzyl ester] | 98.3 |
| O=C(Nc1nc(-c2ccc(S(=O)(=O)NC3CC3)cc2)cs1)C1CCCN1C(=O)OCc1ccccc1 (centres unmarked) [Compound 5378, 2-[4-(4-Cyclopropylsulfamoyl-phenyl)-thiazol-2-ylcarbamoyl]-pyrrolidine-1-carboxylic acid benzyl ester] | 98.3 |
| O=C(Nc1cccc(-c2csc(NC(=O)C3CCCN3C(=O)OCc3ccccc3)n2)c1)c1ccccc1 (centres unmarked) [Compound 5019, 2-[4-(3-Benzoylamino-phenyl)-thiazol-2-ylcarbamoyl]-pyrrolidine-1-carboxylic acid benzyl ester] | 100 |
| O=C(NC1CCNCC1)c1ccc(-c2csc(NC(=O)C3CCCN3C(=O)OCc3ccccc3)n2)cc1 (centres unmarked) [Compound 5356, 2-{4-[4-(Piperidin-4-ylcarbamoyl)-phenyl]-thiazol-2-ylcarbamoyl}-pyrrolidine-1-carboxylic acid benzyl ester] | 100 |
| O=C(Nc1cccc(-c2csc(NC(=O)C3CCCN3C(=O)OCc3ccccc3)n2)c1)C1CC1 (centres unmarked) [Compound 5039, 2-{4-[3-(Cyclopropanecarbonyl-amino)-phenyl]-thiazol-2-ylcarbamoyl}-pyrrolidine-1-carboxylic acid benzyl ester] | 99.6 |
| O=C(Nc1nc(-c2ccc(NS(=O)(=O)C3CC3)cc2)cs1)[C@@H]1CCCN1C(=O)OCc1ccccc1 [Compound 5329, 2-[4-(4-Cyclopropanesulfonylamino-phenyl)-thiazol-2-ylcarbamoyl]-pyrrolidine-1-carboxylic acid benzyl ester] | 97 |
| O=C(Nc1nc(-c2ccc(NCC3CCCC3)cc2)cs1)[C@@H]1CCCN1C(=O)OCc1ccccc1 [Compound 5380, 2-{4-[4-(Cyclopentylmethyl-amino)-phenyl]-thiazol-2-ylcarbamoyl}-pyrrolidine-1-carboxylic acid benzyl ester] | 98.3 |
| CNC(=O)c1ccc(-c2csc(NC(=O)[C@@H]3CCCN3C(=O)OCc3ccccc3)n2)cc1 [Compound 5105, 2-[4-(4-Methylcarbamoyl-phenyl)-thiazol-2-ylcarbamoyl]-pyrrolidine-1-carboxylic acid benzyl ester] | 100 |
| O=C(NC1CC1)c1ccc(-c2csc(NC(=O)[C@@H]3CCCN3C(=O)NCc3ccccc3)n2)cc1 [Compound 5342, Pyrrolidine-1,2-dicarboxylic acid 1-benzylamide 2-{[4-(4-cyclopropylcarbamoyl-phenyl)-thiazol-2-yl]-amide}] | 95.2 |
| O=C(NC1CC1)c1ccc(-c2csc(NC(=O)C3CCC[C@H]3C(=O)NCc3ccccc3)n2)cc1 (mixture of isomers) [Compound 5340, Cyclopentane-1,2-dicarboxylic acid 1-benzylamide 2-{[4-(4-cyclopropylcarbamoyl-phenyl)-thiazol-2-yl]-amide}] | 100 |
| Cc1ccc(-c2csc(NC(=O)[C@@H]3CCCN3C(=O)OCc3ccccc3)n2)c(C)c1 [Compound 5021, 2-[4-(2,4-Dimethyl-phenyl)-thiazol-2-ylcarbamoyl]-pyrrolidine-1-carboxylic acid benzyl ester] | 97 |
| CCc1ccc(-c2csc(NC(=O)[C@@H]3CCCN3C(=O)OCc3ccccc3)n2)cc1 [Compound 5094, 2-[4-(4-Ethyl-phenyl)-thiazol-2-ylcarbamoyl]-pyrrolidine-1-carboxylic acid benzyl ester] | 3.49 |
| O=C(CCCCC1SC[C@@H]2NC(=O)N[C@H]12)NCCCCCC(=O)Nc1ccc(-c2csc(NC(=O)C3CCCN3C(=O)OCc3ccccc3)n2)cc1 (some centres unmarked) [Compound 5374, 2-[4-(4-{6-[5-(2-Oxo-hexahydro-thieno[3,4-d]imidazol-6-yl)-pentanoylamino]-hexanoylamino}-phenyl)-thiazol-2-ylcarbamoyl]-pyrrolidine-1-carboxylic acid benzyl ester] | 99.3 |
| CCCc1ccc(-c2csc(NC(=O)[C@@H]3CCCN3C(=O)OCc3ccccc3)n2)cc1 [Compound 5099, 2-[4-(4-Propyl-phenyl)-thiazol-2-ylcarbamoyl]-pyrrolidine-1-carboxylic acid benzyl ester] | 35.7 |
| O=C(Nc1ccncc1)c1ccc(-c2csc(NC(=O)[C@@H]3CCCN3C(=O)OCc3ccccc3)n2)cc1 [Compound 5302, 2-{4-[4-(Pyridin-4-ylcarbamoyl)-phenyl]-thiazol-2-ylcarbamoyl}-pyrrolidine-1-carboxylic acid benzyl ester] | 100 |
| COc1c(F)c(F)c(-c2csc(NC(=O)[C@@H]3CCCN3C(=O)OCc3ccccc3)n2)c(F)c1F [Compound 5020, 2-[4-(2,3,5,6-Tetrafluoro-4-methoxy-phenyl)-thiazol-2-ylcarbamoyl]-pyrrolidine-1-carboxylic acid benzyl ester] | 58.2 |
| CC(C)NC(=O)c1ccc(-c2csc(NC(=O)C3CCCN3C(=O)OCc3ccccc3)n2)cc1 (centres unmarked) [Compound 5117, 2-[4-(4-Isopropylcarbamoyl-phenyl)-thiazol-2-ylcarbamoyl]-pyrrolidine-1-carboxylic acid benzyl ester] | 99.8 |
| O=C(NCCN1CCOCC1)c1ccc(-c2csc(NC(=O)C3CCCN3C(=O)OCc3ccccc3)n2)cc1 (centres unmarked) [Compound 5339, 2-{4-[4-(2-Morpholin-4-yl-ethylcarbamoyl)-phenyl]-thiazol-2-ylcarbamoyl}-pyrrolidine-1-carboxylic acid benzyl ester] | 100 |
| CC(C)(CN1CCOCC1)NC(=O)c1ccc(-c2csc(NC(=O)[C@@H]3CCCN3C(=O)OCc3ccccc3)n2)cc1 [Compound 5306, 2-{4-[4-(1,1-Dimethyl-2-morpholin-4-yl-ethylcarbamoyl)-phenyl]-thiazol-2-ylcarbamoyl}-pyrrolidine-1-carboxylic acid benzyl ester] | 100 |
| O=C(Nc1ncc(Cc2cccc([N+](=O)[O-])c2)s1)[C@@H]1CCCN1C(=O)OCc1ccccc1 [Compound 5047, 2-[5-(3-Nitrobenzyl)-thiazol-2-ylcarbamoyl]-pyrrolidine-1-carboxylic acid benzyl ester] | 37.7 |
| O=C(Nc1ccc(-c2csc(NC(=O)C3CCCN3C(=O)OCc3ccccc3)n2)cc1)C1CCCC1 (centres unmarked) [Compound 5006, 2-{4-[4-(Cyclopentanecarbonyl-amino)-phenyl]-thiazol-2-ylcarbamoyl}-pyrrolidine-1-carboxylic acid benzyl ester] | 99.9 |
| O=C(NC1CCNC1)c1ccc(-c2csc(NC(=O)[C@@H]3CCCN3C(=O)OCc3ccccc3)n2)cc1 (some centres unmarked) [Compound 5322, 2-{4-[4-(Pyrrolidin-3-ylcarbamoyl)-phenyl]-thiazol-2-ylcarbamoyl}-pyrrolidine-1-carboxylic acid benzyl ester] | 100 |
| CCCOc1ccc(-c2cnc(NC(=O)[C@@H]3CCCN3C(=O)OCc3ccccc3)s2)cc1 [Compound 5011, 2-[5-(4-Propoxy-phenyl)-thiazol-2-ylcarbamoyl]-pyrrolidine-1-carboxylic acid benzyl ester] | 32.9 |
| Nc1ccc(-c2csc(NC(=O)C3CCCN3C(=O)OCc3ccccc3)n2)cc1 (centres unmarked) [Compound 5050, 2-[4-(4-Amino-phenyl)-thiazol-2-ylcarbamoyl]-pyrrolidine-1-carboxylic acid benzyl ester] | 99.8 |
| O=C(Nc1ncc(Cc2cccc(Cl)c2Cl)s1)[C@@H]1CCCN1C(=O)OCc1ccccc1 [Compound 5012, 2-[5-(2,3-Dichloro-benzyl)-thiazol-2-ylcarbamoyl]-pyrrolidine-1-carboxylic acid benzyl ester] | 1.01 |
| O=C(NC1CC1)c1ccc(-c2csc(NC(=O)[C@@H]3CCCN3C(=O)Cc3ccccc3)n2)cc1 [Compound 5325, 1-Phenylacetyl-pyrrolidine-2-carboxylic acid [4-(4-cyclopropylcarbamoyl-phenyl)-thiazol-2-yl]-amide] | 86.9 |
